By ED50 is commonly meant the midpoint of the dose-response relation.

One series is described as follows: Solubility. Type of series: physicochemical.
A short description of series [1]: Potentiometric titration profile. Type of series: physicochemical. The conditions noted are these: methylcellosolve/water 4:1, titration with 0.01N NaOH after excess of 0.01N HCl.
For series [2], the system named is Staphylococcus aureus Tour. As to the kind of experiment: In vitro antibacterial activity, two-fold dilution method in microtiter system (MIC). It is filed as cell-based. How it is done:
The in vitro antibacterial activity of deglucoteicoplanin was determined using the two-fold dilution method in microtiter system. Todd-Hewitt broth (Difco) was used for streptococci and Isosensitest broth (Oxoid) for staphylococci and gram-negative bacteria. […]

The test system of series [3] is Escherichia coli SKF 12140. Described as above. Type of series: cell-based. How it is done:
(§1) The in vitro antibacterial activity of deglucoteicoplanin was determined using the two-fold dilution method in microtiter system. Todd-Hewitt broth (Difco) was used for streptococci and Isosensitest broth (Oxoid) for staphylococci and gram-negative bacteria. Overnight broth cultures were diluted so that the final inoculum was about 10^4 colony-forming units per ml (cfu/ml).

Series [4] concerns Proteus vulgaris X 19 H ATCC 881. The series is described as above. It is filed as cell-based. How it is done:
as §1

Series [5] concerns Pseudomonas aeruginosa ATCC 10145. The description is as above. It is filed as cell-based. How it is done:
as §1

Series [6] concerns Staphylococcus aureus ATCC 6538. Described as above. The following applies: inoculum about 10^4 cfu/ml, 18-24 hours at 37° C. It is filed as cell-based. The protocol:
as §1

Series [7] relates to Staphylococcus epidermidis ATCC 12228. The series is described as above. It is filed as cell-based. The protocol: as §1
The subject of series [8] is Streptococcus faecalis ATCC 7080. Described as above. Type of series: cell-based. The protocol: as §1
The test system of series [9] is Streptococcus pneumoniae UC 41. The series is described as above. Type of series: cell-based. The protocol:
as §1

For series [10], the system named is Streptococcus pyogenes C 203 SFK 13400. The series is described as above. Type of series: cell-based. The protocol:
as §1

In a further series the test system is S. aureus L 1096. As to the kind of experiment: MIC against clinical isolate methicillin-resistant staphylococci. It is filed as cell-based. Also noted: unit not given here. The following applies: S. aureus L 1096, clinical isolate methicillin-resistant. The protocol:
as §1

The test system of the next series is S. aureus L 1097. The description is as above. It is filed as cell-based. Also noted: unit not given here. The conditions noted are these: S. aureus L 1097, clinical isolate methicillin-resistant. The protocol:
as §1

A further series relates to S. aureus L 1524. The description is as above. Type of series: cell-based. Also noted: unit not given here. The following applies: S. aureus L 1524, clinical isolate methicillin-resistant. The protocol: as §1
Another series deals with S. aureus L 1526. The series is described as above. Type of series: cell-based. On the set-up: unit not given here. The following applies: S. aureus L 1526, clinical isolate methicillin-resistant. How it is done: as §1
Another series concerns S. epidermidis 1142. The series is described as above. Type of series: cell-based. Also noted: unit not given here. The conditions noted are these: S. epidermidis 1142, clinical isolate methicillin-resistant. How it is done:
as §1

In the next series the test system is S. epidermidis 1372. Described as above. It is filed as cell-based. Also noted: unit not given here. The following applies: S. epidermidis 1372, clinical isolate methicillin-resistant. The protocol: as §1
The subject of a further series is S. epidermidis 1378. The series is described as above. It is filed as cell-based. Also noted: unit not given here. The conditions noted are these: S. epidermidis 1378, clinical isolate methicillin-resistant. How it is done: as §1
Another series relates to S. epidermidis 785. The series is described as above. Type of series: cell-based. Also noted: unit not given here. The conditions noted are these: S. epidermidis 785, clinical isolate methicillin-resistant. The protocol: as §1
The test system of the next series is S. epidermidis 835. The series is described as above. Type of series: cell-based. Also noted: unit not given here. The following applies: S. epidermidis 835, clinical isolate methicillin-resistant. How it is done: as §1
In the next series the test system is S. pyogenes. Put plainly: Experimental infection in mice infected with S. pyogenes. The following applies: subcutaneous administration. Type of series: in vivo.
Series [11] has as its system staphylococci (S. aureus, S. epidermidis). As to the kind of experiment: In vitro antibacterial activity against staphylococci (summary). Type of series: cell-based. The conditions noted are these: in words. The protocol:
as §1

Series [12] relates to clinical isolate methicillin-resistant staphylococci (S. aureus, S. epidermidis). Put plainly: In vitro antibacterial activity against methicillin-resistant staphylococci (summary). It is filed as cell-based. The following applies: in words. The protocol: as §1

Values after ≈ are worked out from the molar mass of the structure shown.

Regarding `CC(=O)N[C@@H]1[C@@H](O[C@H]2c3ccc(c(Cl)c3)Oc3cc4cc(c3O)Oc3ccc(cc3Cl)C[C@@H]3NC(=O)[C@@H](N)c5ccc(O)c(c5)Oc5cc(O)cc(c5)[C@@H](NC3=O)C(=O)N[C@@H]4C(=O)N[C@@H]3C(=O)N[C@H]2C(=O)N[C@@H](C(=O)O)c2cc(O)cc(O)c2-c2cc3ccc2O)O[C@@H](CO)[C@H](O)[C@H]1O` (stereo in doubt) [antibiotic L 17046], the solubility entry was “slightly soluble” in the series “Solubility” (in methanol); “almost insoluble” in the series “Solubility” (in n-hexane, ethyl ether and acetone); “freely soluble” in the series “Solubility” (in water at pH>8.0, in dimethylformamide, dimethylsulfoxide, propyleneglycol and methylcellosolve). In addition, the “pH1/2 value, third titration slope” value in [1] (five equivalents) came to 11. Besides, the “pH1/2 value, first titration slope” value in series [1] (one equivalent) is recorded as 5.0. In series [1] (one equivalent), the “pH1/2 value, second titration slope” value is 7.0.

For the molecule `N[C@H]1C(=O)N[C@@H]2Cc3ccc(c(Cl)c3)Oc3cc4cc(c3O)Oc3ccc(cc3Cl)[C@@H](O)[C@@H]3NC(=O)[C@H](NC(=O)[C@@H]4NC(=O)[C@@H](NC2=O)c2cc(O)cc(c2)Oc2cc1ccc2O)c1ccc(O)c(c1)-c1c(O)cc(O)cc1[C@@H](C(=O)O)NC3=O` [deglucoteicoplanin], the MIC was 0.2 µg/mL (≈ 0.167 µM) in series [2] (Inoculum: 10^6 cfu/ml); 0.2 µg/mL in series [2] (in the presence of 30% bovine serum); 0.05 µg/mL (≈ 0.0417 µM) in series [2] (inoculum about 10^4 cfu/ml); 25 µg/mL (≈ 20.9 µM) in [3]; 50 µg/mL (≈ 41.7 µM) in series [4]; greater than 100 µg/mL in series [5]. For the same molecule, the MIC in series [6] turned out to be 0.025 µg/mL (≈ 0.0209 µM); in [7], 0.0125 µg/mL (≈ 0.0104 µM); in series [8] it was 0.1 µg/mL (≈ 0.0834 µM); in series [9], 0.05 µg/mL (≈ 0.0417 µM); in [10] it was 0.05 µg/mL (≈ 0.0417 µM); against S. aureus L 1096, 0.05. Also, the MIC against S. aureus L 1097 amounted to 0.05; in the series with S. aureus L 1524 it was 0.1; in the series with S. aureus L 1526 it was 0.05; against S. epidermidis 1142, 0.05; against S. epidermidis 1372, 0.2; in the series on S. epidermidis 1378, 0.05. For the same molecule, the MIC against S. epidermidis 785 and in the series on S. epidermidis 835 was 0.05 in each case. Moreover, the ED50 with S. pyogenes came to 0.95 mg/kg. In addition, the solubility result in “Solubility” (in ethyl alcohol and dimethylformamide) is listed as “slightly soluble”; in “Solubility” (in water at a pH higher than 9 and aqueous methanol, ethanol and acetone), “soluble”. Also, the “activity against staphylococci (S. aureus, S. epidermidis)” value in series [11] is given as “very active”. In [12], the “activity against clinical isolate methicillin-resistant staphylococci” value is “very effective”.

For the origin of these results see US4629781A, “Chemical process for preparing L 17392 (deglucoteicoplanin) and its salts” (Gruppo Lepetit S.p.A., priority 1983, dated 1986).
